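Following 48 hours of exposure in 96-well plates, responses at five concentrations were used to interpolate endpoints linearly. At the GI50, growth is halved. At the TGI there is no net growth.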

Some test systems named below: HOP-62 NSCLC; HT29 colon; K-562 leukemia; MALME-3M melanoma; MDA-MB-231 breast; NCI-H23 lung; OVCAR-4 ovarian; OVCAR-8 ovarian; UACC-62 melanoma; HL-60(TB) leukemia.
Holding throughout (assay): inhibition of tumour cell growth, NCI panel, 48 h

In the case of `O=C(O)C[O][Sb][O]CC(=O)O`, the GI50 in the assay with HOP-62 NSCLC, in the assay with HT29 colon, in the assay with K-562 leukemia, in the assay with MALME-3M melanoma, with MDA-MB-231 breast and in the assay on NCI-H23 lung was above 100 µM in each case. Further, the GI50 in the assay with OVCAR-4 ovarian, with OVCAR-8 ovarian and in the assay with UACC-62 melanoma was above 100 µM in each case. Besides, the TGI in the assay on HOP-62 NSCLC, in the assay with HT29 colon, in the assay with K-562 leukemia, in the assay on MALME-3M melanoma, in the assay with MDA-MB-231 breast and in the assay with NCI-H23 lung was above 100 µM in each case. Further, the TGI in the assay with OVCAR-4 ovarian, in the assay with OVCAR-8 ovarian and in the assay on UACC-62 melanoma was above 100 µM each time.

Consider `NC(CSc1nc2ccccn2c1[N+](=O)[O-])C(=O)O` (stereo unspecified), for which the TGI in the assay with HOP-62 NSCLC, in the assay with HT29 colon, with K-562 leukemia, in the assay on MALME-3M melanoma, in the assay on MDA-MB-231 breast and in the assay with NCI-H23 lung was above 100 µM in each case. Further, the TGI in the assay with OVCAR-4 ovarian, with OVCAR-8 ovarian and in the assay with UACC-62 melanoma was above 100 µM each time.

Consider `CCN(C(=O)CCl)C(C)(C)C(SSSC(c1ccc(Cl)cc1)C(C)(C)N(CC)C(=O)CCl)c1ccc(Cl)cc1` (stereo unspecified), for which the GI50 with HL-60(TB) leukemia was 2.1 µM; in the assay with HOP-62 NSCLC, 8.33 µM; in the assay on HT29 colon, 2.65 µM; in the assay with K-562 leukemia it was 1.71 µM; with MALME-3M melanoma, 2.21 µM; in the assay with MDA-MB-231 breast, 3.58 µM. The GI50 was 5.04 µM in the assay with OVCAR-4 ovarian and 10.9 µM in the assay on OVCAR-8 ovarian. Further, the TGI came out at 7.92 µM with HL-60(TB) leukemia; 23.4 µM in the assay on HOP-62 NSCLC; 8.23 µM in the assay on HT29 colon; 3.59 µM in the assay with K-562 leukemia; 3.97 µM in the assay with MALME-3M melanoma; 14.6 µM in the assay on MDA-MB-231 breast. In addition, the TGI with OVCAR-4 ovarian turned out to be 19.6 µM; in the assay with OVCAR-8 ovarian, 24.1 µM.

For the compound `C[C@]12CCC3c4ccc(O)cc4CCC3C1Cc1ccc(O)cc12` (stereo partly specified), the GI50 in the assay with HL-60(TB) leukemia was 1.08 µM; in the assay with HT29 colon, 6.13 µM; in the assay on K-562 leukemia, 0.794 µM; with MALME-3M melanoma, 10.8 µM; with MDA-MB-231 breast it was 7.44 µM; in the assay with OVCAR-4 ovarian it was 15.3 µM. Moreover, the GI50 with OVCAR-8 ovarian was 15.8 µM; with UACC-62 melanoma it was 5.25 µM. The TGI turned out to be 3.29 µM in the assay with HL-60(TB) leukemia; 20.6 µM in the assay on HT29 colon; 11.2 µM in the assay on K-562 leukemia; 29.1 µM with MALME-3M melanoma; 22.2 µM with MDA-MB-231 breast; 92.7 µM with OVCAR-4 ovarian. For the same compound, the TGI in the assay with OVCAR-8 ovarian came out at 33.8 µM; in the assay on UACC-62 melanoma, 17.1 µM.

In the case of `O=C(NC(=S)NNC(=S)NNc1ccccc1)c1ccccc1`, the GI50 in the assay with HL-60(TB) leukemia was 3.27 µM; in the assay with HOP-62 NSCLC, 4.7 µM; in the assay on HT29 colon, 15.1 µM; with K-562 leukemia, 1.13 µM; in the assay with MALME-3M melanoma, 24.2 µM; with MDA-MB-231 breast, 12.9 µM. Besides, the GI50 was 11 µM in the assay on OVCAR-4 ovarian and 4.68 µM in the assay with OVCAR-8 ovarian. In addition, the TGI with HL-60(TB) leukemia is 8.52 µM; in the assay on HOP-62 NSCLC, above 100 µM; in the assay on HT29 colon, above 100 µM; in the assay on K-562 leukemia, above 100 µM; with MALME-3M melanoma, above 100 µM; in the assay on MDA-MB-231 breast it was above 100 µM. The TGI in the assay with OVCAR-4 ovarian and in the assay with OVCAR-8 ovarian was above 100 µM throughout.

With `O=C(OCC1OC(OC(=O)c2cc(O)c(O)c(OC(=O)c3cc(O)c(O)c(O)c3)c2)C(OC(=O)c2cc(O)c(O)c(OC(=O)c3cc(O)c(O)c(O)c3)c2)C(OC(=O)c2cc(O)c(O)c(OC(=O)c3cc(O)c(O)c(O)c3)c2)C1OC(=O)c1cc(O)c(O)c(OC(=O)c2cc(O)c(O)c(O)c2)c1)c1cc(O)c(O)c(OC(=O)c2cc(O)c(O)c(O)c2)c1` (stereo unspecified), the GI50 was 29.4 µM with HL-60(TB) leukemia; above 50 µM with HOP-62 NSCLC; 26.4 µM with HT29 colon; 25.3 µM in the assay with K-562 leukemia; 9.85 µM in the assay on MDA-MB-231 breast; 18.9 µM in the assay on NCI-H23 lung. For the same compound, the GI50 in the assay on OVCAR-4 ovarian was 35.2 µM; in the assay on OVCAR-8 ovarian, 25.6 µM; in the assay with UACC-62 melanoma it was 14.3 µM. Also, the TGI in the assay on HL-60(TB) leukemia was above 50 µM; in the assay with HOP-62 NSCLC, above 50 µM; in the assay on HT29 colon it was above 50 µM; with K-562 leukemia, above 50 µM; in the assay on MDA-MB-231 breast, 36.7 µM; with NCI-H23 lung it was above 50 µM. The TGI with OVCAR-4 ovarian, with OVCAR-8 ovarian and in the assay on UACC-62 melanoma was above 50 µM in each case.

`O=C(Nc1ccccc1)NS(=O)(=O)c1ccc(N2N=C3c4ccccc4CC3C2c2ccccn2)cc1` (stereo unspecified): the GI50 in the assay on HOP-62 NSCLC was 20.4 µM; with HT29 colon it was 37.9 µM; with K-562 leukemia, 26.7 µM; in the assay on MDA-MB-231 breast, 19.8 µM; in the assay on NCI-H23 lung, 20.8 µM; in the assay on OVCAR-4 ovarian, above 100 µM. Also, the GI50 was 27 µM in the assay on OVCAR-8 ovarian and 17.8 µM in the assay with UACC-62 melanoma. Moreover, the TGI with HOP-62 NSCLC is 45.5 µM; with HT29 colon, above 100 µM; in the assay with K-562 leukemia it was 65.6 µM; with MDA-MB-231 breast, 60.8 µM; in the assay on NCI-H23 lung, 52.2 µM; in the assay with OVCAR-4 ovarian, above 100 µM. In addition, the TGI in the assay with OVCAR-8 ovarian came out at 92.3 µM; with UACC-62 melanoma, 37.2 µM.

As for `Cc1ccccc1NC(=O)C1C(=O)N(c2ccccc2C)C(=O)/C1=N\N` (stereo unspecified), the TGI with HL-60(TB) leukemia, in the assay with HOP-62 NSCLC, in the assay with HT29 colon, in the assay on K-562 leukemia, in the assay with MALME-3M melanoma and in the assay with NCI-H23 lung was above 100 µM each time. Also, the TGI with OVCAR-4 ovarian, with OVCAR-8 ovarian and with UACC-62 melanoma was above 100 µM throughout.

As to `CC(=O)OC1C/C(C)=C/CCC(C)/C=C/C2(C)CCC(C(C)(C)O)C12` (stereo unspecified), the TGI in the assay on HL-60(TB) leukemia is 55.5 µM; with HOP-62 NSCLC, above 100 µM; in the assay on HT29 colon, above 100 µM; with K-562 leukemia, above 100 µM; in the assay with MALME-3M melanoma, above 100 µM; in the assay on NCI-H23 lung it was above 100 µM. The TGI in the assay on OVCAR-4 ovarian, in the assay on OVCAR-8 ovarian and in the assay with UACC-62 melanoma was above 100 µM each time.

For the compound `CCC1(C(=O)OC)CCc2c(OC)ccc(OC)c2C1=O` (stereo unspecified), the TGI with HL-60(TB) leukemia, in the assay on HOP-62 NSCLC, with HT29 colon, with K-562 leukemia, in the assay with MALME-3M melanoma and in the assay with NCI-H23 lung was above 100 µM each time. For the same compound, the TGI in the assay with OVCAR-4 ovarian, in the assay with OVCAR-8 ovarian and in the assay on UACC-62 melanoma was above 100 µM throughout.

(Values after PubChem BioAssay (NCI).)
